{
  "source": "PubChem BioAssay AID256",
  "about": "(DTP/NCI, 2004)",
  "test_system": "CD2F1 mice, L1210 leukemia ip, survival T/C",
  "assay": "NCI In Vivo Anticancer Drug Screen. Data for tumor model L1210 Leukemia (intraperitoneal) in CD2F1 (CDF1) mice",
  "conditions": "higher = longer survival",
  "how_it_was_run": "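In this screen, transplantable tumors were grown in mice given either the compound or its vehicle. Results were expressed as the treated measurement relative to the control measurement.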",
  "key": {"[1]": {"conditions": "endpoint: mean survival time, dose: 50.0 mg/kg/injection, schedule: Q01DX009 (ip), vehicle: saline with Tween-80"}, "[2]": {"conditions": "endpoint: mean survival time, dose: 100.0 mg/kg/injection, schedule: Q01DX009 (ip), vehicle: saline with Tween-80"}, "[3]": {"conditions": "endpoint: mean survival time, dose: 200.0 mg/kg/injection, schedule: Q01DX009 (ip), vehicle: saline with Tween-80"}, "[4]": {"conditions": "endpoint: mean survival time, dose: 25.0 mg/kg/injection, schedule: Q01DX009 (ip), vehicle: saline with Tween-80"}, "[5]": {"conditions": "endpoint: median survival time, dose: 50.0 mg/kg/injection, schedule: Q01DX005 (ip), vehicle: saline with Tween-80"}, "[6]": {"conditions": "endpoint: mean survival time, dose: 400.0 mg/kg/injection, schedule: Q01DX009 (ip), vehicle: saline with Tween-80"}, "[7]": {"conditions": "endpoint: mean survival time, dose: 100.0 mg/kg/injection, schedule: Q04DX003 (ip), vehicle: saline with Tween-80"}, "[8]": {"conditions": "endpoint: mean survival time, dose: 200.0 mg/kg/injection, schedule: Q04DX003 (ip), vehicle: saline with Tween-80"}},
  "note": "Several values for one entry are separate records, joined by “and”; a condition that tells them apart may be missing. Equal entries are not always repeated. Inconclusive results and toxic doses are left out.",
  "data": [
    {"smiles": "COc1cc(OC)c(NC(=O)Nc2cccc(C(=O)O)c2)cc1Cl", "values": [
      {"measurement": "T/C", "setting": "[1]", "result": "88 % of control"},
      {"measurement": "T/C", "setting": "[2]", "result": "88 % of control"},
      {"measurement": "T/C", "setting": "[3]", "result": "92 % of control"}
    ]},
    {"smiles": "Nc1nc(N)c2c(Cl)c(CNc3ccc(Cl)c(Cl)c3)ccc2n1", "values": [
      {"measurement": "T/C", "setting": "endpoint: mean survival time, dose: 3.12 mg/kg/injection, schedule: Q01DX009 (ip), vehicle: saline with Tween-80", "result": "110 % of control"},
      {"measurement": "T/C", "setting": "endpoint: mean survival time, dose: 3.13 mg/kg/injection, schedule: Q01DX009 (ip), vehicle: saline with Tween-80", "result": "98 % of control"},
      {"measurement": "T/C", "setting": "endpoint: mean survival time, dose: 6.25 mg/kg/injection, schedule: Q01DX009 (ip), vehicle: saline with Tween-80", "result": "114 % of control and 115 % of control"},
      {"measurement": "T/C", "setting": "[4]", "result": "153 % of control"},
      {"measurement": "T/C", "setting": "[1]", "result": "156 % of control and 188 % of control"},
      {"measurement": "T/C", "setting": "[2]", "result": "111 % of control"},
      {"measurement": "T/C", "setting": "endpoint: median survival time, dose: 6.25 mg/kg/injection, schedule: Q01DX009 (ip), vehicle: saline with Tween-80", "result": "102 % of control and 110 % of control"},
      {"measurement": "T/C", "setting": "endpoint: median survival time, dose: 25.0 mg/kg/injection, schedule: Q01DX009 (ip), vehicle: saline with Tween-80", "result": "150 % of control and 153 % of control"},
      {"measurement": "T/C", "setting": "[5]", "result": "159 % of control"},
      {"measurement": "T/C", "setting": "endpoint: median survival time, dose: 50.0 mg/kg/injection, schedule: Q01DX009 (ip), vehicle: saline with Tween-80", "result": "175 % of control and 198 % of control"},
      {"measurement": "T/C", "setting": "endpoint: median survival time, dose: 83.33 mg/kg/injection, schedule: Q01DX005 (ip), vehicle: saline with Tween-80", "result": "202 % of control"},
      {"measurement": "T/C", "setting": "endpoint: median survival time, dose: 83.63 mg/kg/injection, schedule: Q01DX005 (ip), vehicle: saline with Tween-80", "result": "230 % of control"},
      {"measurement": "T/C", "setting": "endpoint: median survival time, dose: 138.89 mg/kg/injection, schedule: Q01DX005 (ip), vehicle: saline with Tween-80", "result": "179 % of control"},
      {"measurement": "T/C", "setting": "endpoint: median survival time, dose: 139.39 mg/kg/injection, schedule: Q01DX005 (ip), vehicle: saline with Tween-80", "result": "151 % of control"},
      {"measurement": "T/C", "setting": "endpoint: median survival time, dose: 232.31 mg/kg/injection, schedule: Q01DX005 (ip), vehicle: saline with Tween-80", "result": "117 % of control"}
    ]},
    {"smiles": "CCOC(=O)C[N+](CC)(CC)CC", "values": [
      {"measurement": "T/C", "setting": "endpoint: mean survival time, dose: 100.0 mg/kg/injection, schedule: Q04DX003 (ip), vehicle: Klucel (hydroxypropylcellulose) (HPC)", "result": "96 % of control"},
      {"measurement": "T/C", "setting": "endpoint: mean survival time, dose: 200.0 mg/kg/injection, schedule: Q04DX003 (ip), vehicle: Klucel (hydroxypropylcellulose) (HPC)", "result": "96 % of control"},
      {"measurement": "T/C", "setting": "endpoint: mean survival time, dose: 400.0 mg/kg/injection, schedule: Q04DX003 (ip), vehicle: Klucel (hydroxypropylcellulose) (HPC)", "result": "93 % of control"}
    ]},
    {"smiles": "N#C/C(=C\\c1c(Cl)cccc1Cl)c1ccc([N+](=O)[O-])cc1", "values": [
      {"measurement": "T/C", "setting": "[2]", "result": "97 % of control"},
      {"measurement": "T/C", "setting": "[3]", "result": "88 % of control"},
      {"measurement": "T/C", "setting": "[6]", "result": "91 % of control"}
    ]},
    {"smiles": "Cc1ccc(C2=C(Cl)C(=O)C(c3ccc(C)cc3)=C(Cl)C2=O)cc1", "values": [
      {"measurement": "T/C", "setting": "endpoint: mean survival time, dose: 75.0 mg/kg/injection, schedule: Q01DX001 (ip), vehicle: other", "result": "92 % of control"},
      {"measurement": "T/C", "setting": "endpoint: mean survival time, dose: 150.0 mg/kg/injection, schedule: Q01DX001 (ip), vehicle: other", "result": "92 % of control"},
      {"measurement": "T/C", "setting": "endpoint: mean survival time, dose: 300.0 mg/kg/injection, schedule: Q01DX001 (ip), vehicle: other", "result": "94 % of control"}
    ]},
    {"smiles": "N#CCOc1cccc([N+](=O)[O-])c1", "values": [
      {"measurement": "T/C", "setting": "[7]", "result": "103 % of control"},
      {"measurement": "T/C", "setting": "[8]", "result": "96 % of control"}
    ]},
    {"smiles": "Clc1cc(Cl)c(C[N+]23CN4CN(CN(C4)C2)C3)cc1Cl", "values": [
      {"measurement": "T/C", "setting": "endpoint: mean survival time, dose: 12.5 mg/kg/injection, schedule: Q01DX009 (ip), vehicle: saline with Tween-80", "result": "104 % of control"},
      {"measurement": "T/C", "setting": "[4]", "result": "98 % of control"},
      {"measurement": "T/C", "setting": "[1]", "result": "92 % of control and 109 % of control"},
      {"measurement": "T/C", "setting": "[2]", "result": "104 % of control and 112 % of control"},
      {"measurement": "T/C", "setting": "[7]", "result": "106 % of control"},
      {"measurement": "T/C", "setting": "[3]", "result": "108 % of control"},
      {"measurement": "T/C", "setting": "[8]", "result": "104 % of control"}
    ]},
    {"smiles": "COc1ccc(C(=O)/C=C/c2cccc3ccccc23)cc1", "values": [
      {"measurement": "T/C", "setting": "[4]", "result": "91 % of control"},
      {"measurement": "T/C", "setting": "[1]", "result": "93 % of control"},
      {"measurement": "T/C", "setting": "[2]", "result": "91 % of control"}
    ]},
    {"smiles": "CCN(CC)Cc1cc(Nc2ncnc3oc(C)c(C)c23)ccc1O", "values": [
      {"measurement": "T/C", "setting": "endpoint: mean survival time, dose: 100.0 mg/kg/injection, schedule: Q01DX001 (ip), vehicle: saline with Tween-80", "result": "100 % of control"},
      {"measurement": "T/C", "setting": "[2]", "result": "102 % of control"},
      {"measurement": "T/C", "setting": "endpoint: mean survival time, dose: 200.0 mg/kg/injection, schedule: Q01DX001 (ip), vehicle: saline with Tween-80", "result": "95 % of control"},
      {"measurement": "T/C", "setting": "[3]", "result": "96 % of control"},
      {"measurement": "T/C", "setting": "endpoint: mean survival time, dose: 400.0 mg/kg/injection, schedule: Q01DX001 (ip), vehicle: saline with Tween-80", "result": "95 % of control"},
      {"measurement": "T/C", "setting": "[6]", "result": "100 % of control"}
    ]},
    {"smiles": "COc1nc(NC2OC(CO)C(O)C(O)C2O)c(I)c(=O)n1C", "note": "(stereo not given)", "values": [
      {"measurement": "T/C", "setting": "endpoint: median survival time, dose: 12.5 mg/kg/injection, schedule: Q01DX005 (ip), vehicle: saline with Tween-80", "result": "100 % of control"},
      {"measurement": "T/C", "setting": "endpoint: median survival time, dose: 25.0 mg/kg/injection, schedule: Q01DX005 (ip), vehicle: saline with Tween-80", "result": "100 % of control"},
      {"measurement": "T/C", "setting": "[5]", "result": "100 % of control"},
      {"measurement": "T/C", "setting": "endpoint: median survival time, dose: 100.0 mg/kg/injection, schedule: Q01DX005 (ip), vehicle: saline with Tween-80", "result": "100 % of control"},
      {"measurement": "T/C", "setting": "endpoint: median survival time, dose: 200.0 mg/kg/injection, schedule: Q01DX005 (ip), vehicle: saline with Tween-80", "result": "101 % of control"}
    ]}
  ]
}
